Experimental data as given in PubChem BioAssay AID330 (DTP/NCI, 2004).
Several values for one entry are separate records, joined by “and”; a condition that tells them apart may be missing. Equal entries are not always repeated. Inconclusive results and toxic doses are left out.

Tested on: P388 leukemia ip, CD2F1 mice, survival T/C
Experiment: NCI In Vivo Anticancer Drug Screen. Data for tumor model P388 Leukemia (intraperitoneal) in CD2F1 (CDF1) mice
Conditions: endpoint: median survival time, higher = longer survival
How it was run: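 Mice carrying the transplanted tumor received test compound or vehicle. Survival was recorded in each group, and the value is the treated-group measurement divided by that of the vehicle-treated control group.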

[1] = dose: 100.0 mg/kg/injection, schedule: Q01DX005 (ip), vehicle: saline with Tween-80
[2] = dose: 200.0 mg/kg/injection, schedule: Q01DX005 (ip), vehicle: saline with Tween-80
[3] = dose: 25.0 mg/kg/injection, schedule: Q01DX009 (ip), vehicle: saline with Tween-80
[4] = dose: 50.0 mg/kg/injection, schedule: Q01DX009 (ip), vehicle: saline with Tween-80
[5] = dose: 100.0 mg/kg/injection, schedule: Q01DX009 (ip), vehicle: saline with Tween-80
[6] = dose: 200.0 mg/kg/injection, schedule: Q01DX009 (ip), vehicle: saline with Tween-80
[7] = dose: 50.0 mg/kg/injection, schedule: Q01DX009 (ip), vehicle: Klucel (hydroxypropylcellulose) (HPC)
[8] = dose: 100.0 mg/kg/injection, schedule: Q01DX009 (ip), vehicle: Klucel (hydroxypropylcellulose) (HPC)
[9] = dose: 200.0 mg/kg/injection, schedule: Q01DX009 (ip), vehicle: Klucel (hydroxypropylcellulose) (HPC)
[10] = dose: 50.0 mg/kg/injection, schedule: Q01DX005 (ip), vehicle: Klucel (hydroxypropylcellulose) (HPC)
[11] = dose: 100.0 mg/kg/injection, schedule: Q01DX005 (ip), vehicle: Klucel (hydroxypropylcellulose) (HPC)
[12] = dose: 200.0 mg/kg/injection, schedule: Q01DX005 (ip), vehicle: Klucel (hydroxypropylcellulose) (HPC)

With c1ccc2c(c1)N=NN1CCCOC21 (stereo not drawn) the T/C (dose: 60.0 mg/kg/injection, schedule: Q01DX005 (ip), vehicle: saline with Tween-80) was 100 % of control, the T/C (dose: 120.0 mg/kg/injection, schedule: Q01DX005 (ip), vehicle: saline with Tween-80) was 95 % of control and the T/C (dose: 240.0 mg/kg/injection, schedule: Q01DX005 (ip), vehicle: saline with Tween-80) was 99 % of control.
In the case of COC(=O)C1(C)CCC=CC1Sc1ccccc1 (stereo not drawn), the T/C (dose: 100.0 mg/kg/injection, schedule: Q04DX003 (ip), vehicle: Klucel (hydroxypropylcellulose) (HPC)) is reported as 100 % of control, the T/C (dose: 200.0 mg/kg/injection, schedule: Q04DX003 (ip), vehicle: Klucel (hydroxypropylcellulose) (HPC)) is reported as 105 % of control and the T/C (dose: 400.0 mg/kg/injection, schedule: Q04DX003 (ip), vehicle: Klucel (hydroxypropylcellulose) (HPC)) is reported as 99 % of control.
In the case of CSc1nc(SC)c2c(C)cn(C3OC(C)C(O)C(O)C3O)c2n1 (stereo not drawn), the T/C [1] is reported as 94 % of control, the T/C [2] is reported as 93 % of control and the T/C (dose: 400.0 mg/kg/injection, schedule: Q01DX005 (ip), vehicle: saline with Tween-80) is reported as 97 % of control.
With CCCCCCCCCCCCCCCC(O)S(=O)(=O)O (stereo not drawn) the T/C [3] was 100 % of control, the T/C [4] was 100 % of control and the T/C [5] was 100 % of control.
With O=C(O)C1CCCC2C(O)CCC(=O)C12 (stereo not drawn) the T/C (dose: 100.0 mg/kg/injection, schedule: Q04DX003 (ip), vehicle: saline) was 105 % of control, the T/C (dose: 200.0 mg/kg/injection, schedule: Q04DX003 (ip), vehicle: saline) was 110 % of control and the T/C (dose: 400.0 mg/kg/injection, schedule: Q04DX003 (ip), vehicle: saline) was 105 % of control.
CSC(C=P(c1ccccc1)(c1ccccc1)c1ccccc1)=Nc1ccccc1 was tested, and the T/C (dose: 6.25 mg/kg/injection, schedule: Q01DX009 (ip), vehicle: saline with Tween-80) was 101 % of control, the T/C (dose: 12.5 mg/kg/injection, schedule: Q01DX009 (ip), vehicle: saline with Tween-80) was 101 % of control and the T/C [3] was 102 % of control and 103 % of control.
Cc1nc(N)nc2ccccc12 was tested, and the T/C (dose: 15.0 mg/kg/injection, schedule: Q01DX005 (ip), vehicle: Klucel (hydroxypropylcellulose) (HPC)) was 100 % of control, the T/C (dose: 30.0 mg/kg/injection, schedule: Q01DX005 (ip), vehicle: Klucel (hydroxypropylcellulose) (HPC)) was 100 % of control and the T/C (dose: 60.0 mg/kg/injection, schedule: Q01DX005 (ip), vehicle: Klucel (hydroxypropylcellulose) (HPC)) was 99 % of control.
With O=C1OC2=CC=CC=CC2C12C1C=CC=CC12 (stereo not drawn) the T/C [4] was 100 % of control, the T/C [5] was 105 % of control and the T/C [6] was 104 % of control.
CCCCCCCCCc1cc(=O)n(-c2ccc(C(=O)OCC)cc2)n1C was tested, and the T/C [7] was 104 % of control, the T/C [8] was 90 % of control and the T/C [9] was 93 % of control.
In the case of Nc1c(-c2ccc(C3=NCCN3)cc2)[nH]c2cc(C3=NCCN3)ccc12, the T/C (dose: 6.25 mg/kg/injection, schedule: Q01DX005 (ip), vehicle: Klucel (hydroxypropylcellulose) (HPC)) is reported as 100 % of control, the T/C (dose: 12.5 mg/kg/injection, schedule: Q01DX005 (ip), vehicle: Klucel (hydroxypropylcellulose) (HPC)) is reported as 118 % of control and the T/C [10] is reported as 196 % of control.
In the case of COC(=O)C(Cc1c[nH]c2ccccc12)NC(=O)C(Cc1cnc[nH]1)N(C(=O)OCc1ccccc1)C(=O)OCc1ccccc1 (stereo not drawn), the T/C (dose: 50.0 mg/kg/injection, schedule: Q01DX005 (ip), vehicle: saline with Tween-80) is reported as 100 % of control, the T/C [1] is reported as 89 % of control and the T/C [2] is reported as 98 % of control.
COc1cc(/C=N/NC(=O)c2cccs2)cc(OC)c1OC was tested, and the T/C [5] was 95 % of control, the T/C [6] was 100 % of control and the T/C (dose: 400.0 mg/kg/injection, schedule: Q01DX009 (ip), vehicle: saline with Tween-80) was 100 % of control.
With [Fe+2].[Fe+2].c1ccc2c(c1)-c1nc-2nc2[n-]c(nc3nc(nc4[n-]c(n1)c1ccccc41)-c1ccccc1-3)c1cc3c4nc5nc(nc6[n-]c(nc7nc(nc([n-]4)c3cc21)-c1ccccc1-7)c1ccccc61)-c1ccccc1-5 the T/C [10] was 100 % of control, the T/C [11] was 110 % of control and the T/C [12] was 106 % of control.
For Nc1nc2ccc([N+](=O)[O-])cc2[nH]1, the T/C [7] was 99 % of control, the T/C [8] was 101 % of control and the T/C [9] was 90 % of control.
With CCOC(=O)C1CC1C1=C(C)c2cc3[n-]c(cc4nc(cc5[n-]c(cc1n2)c(C)c5CCC(=O)OC)C(CCC(=O)OC)=C4C)c(C)c3C1CC1C(=O)OCC.[Cl-].[Fe+3] (stereo not drawn) the T/C [10] was 102 % of control, the T/C [11] was 86 % of control and the T/C [12] was 100 % of control.
In the case of O=C1NC(O)c2cc(Cl)ccc2O1 (stereo not drawn), the T/C [10] is reported as 96 % of control, the T/C [11] is reported as 97 % of control and the T/C [12] is reported as 96 % of control.
